In US11369601B2, “Prophylactic or therapeutic agent for pulmonary hypertension comprising mebendazole and/or itraconazole or salt thereof” (TOHOKU UNIVERSITY, priority 2017, dated 2022):
“Also recorded” adds a separate entry of the source.

How the values were obtained:
[1] = system: Hypoxia-induced pulmonary hypertension mice; experiment: Hypoxia-induced pulmonary hypertension mice, right heart catheterization; format: in vivo, mice (C57/BL6); conditions: hypoxia (10% oxygen) 3 weeks, intravenous once daily, itraconazole 20 mg/kg/day, mebendazole 25 mg/kg/day, vs vehicle; for right ventricular systolic pressure: FIG. 1
Procedure: (§1) Hypoxia-induced pulmonary hypertension mice serving as a model generally used in an animal experiment for pulmonary hypertension were intravenously administered itraconazole or mebendazole. Specifically, first, 8-week-old male wild-type mice (C57/BL6 mice, n=10 per group) were housed in a transparent acrylic box with an oxygen concentration controlled to 10% using a hypoxia generator (Teijin Limited, Japan) under a 12 h light and dark cycle. The mice were stimulated by hypoxia for 3 weeks, and in this period, were intravenously injected with itraconazole (the following solution was used as itraconazole: 100 mg of itraconazole was dissolved in 6.7 ml of dimethyl sulfoxide, and the solution of itraconazole in dimethyl sulfoxide was mixed with ultrapure water (mQ or ultrapure water) to prepare a 100 ml solution) once daily at a dose of 20 mg/kg/day. As a Vihicle group, the following test was performed: the mice were stimulated by hypoxia in the same manner as described above except that the mice were intravenously injected with a 1:15 (V/V) mixed solution of dimethyl sulfoxide and ultrapure water in place of itraconazole as a diet. In addition, a mebendazole administration test for hypoxia-induced pulmonary hypertension mice was performed in the same manner as described above except that the mice were intravenously injected with mebendazole in place of itraconazole (the following solution was used as mebendazole: 100 mg of mebendazole was dissolved in 6.7 ml of dimethyl sulfoxide, and the solution of mebendazole in dimethyl sulfoxide was mixed with ultrapure water (mQ or ultrapure water) to prepare a 100 ml solution) at a dose of 25 mg/kg/day.
After the hypoxic stimulation for 3 weeks, a 1.2-Fr catheter (SciSense Inc., Ontario, Canada) was inserted in the jugular vein of the mice under isoflurane anesthesia and advanced into the right ventricle to measure a right ventricular systolic pressure. The average body weights of the Vehicle group, the itraconazole administration group, and the mebendazole administration group before the test were 16.3±0.2 g, 16.8±0.3 g, and 16.8.±0.3 g, respectively. In addition, the average body weights of the Vehicle group, the itraconazole administration group, and the mebendazole administration group after the test were 18.±0.2 g, 17.2±0.2 g, and 17.5±0.2 g, respectively.

[2] = Body weight of hypoxia-induced pulmonary hypertension mice; format: in vivo, mice (C57/BL6); conditions: for average body weight after the test: after 3 weeks hypoxia and once daily intravenous dosing, itraconazole 20 mg/kg/day, mebendazole 25 mg/kg/day
Procedure: as §1
After the hypoxic stimulation for 3 weeks, a 1.2-Fr catheter (SciSense Inc., Ontario, Canada) was inserted in the jugular vein of the mice under isoflurane anesthesia and advanced into the right ventricle to measure a right ventricular systolic pressure. […]

[3] = system: pulmonary artery smooth muscle cells; experiment: Excessive proliferation of pulmonary artery smooth muscle cells (compound investigation); format: cell-based
Text: Under such circumstances, the inventors of the present invention have investigated thousands of kinds of compounds. […] The present invention is based on such novel findings.

[4] = system: Sugen/hypoxia-induced hypertension rat model; experiment: Sugen/hypoxia-induced pulmonary hypertension rat model, RVSP and RVH; format: in vivo, rats (Sprague-Dawley)
Procedure: In this test, a vehicle treatment group was used as a control. A Sugen/hypoxia-induced hypertension rat model was used to assess pulmonary hypertension (PH) (Non-patent Literature 2). In order to assess the development of pulmonary hypertension, right ventricular systolic pressure (RVSP) and right ventricular hypertrophy (RVH) were measured (Non-patent Literatures 2 to 4).
For right heart catheterization, a 1.4-F (for rats) pressure measurement catheter (Transonic Scisense) was inserted into the right jugular vein and advanced into the right ventricle to measure RVSP (Non-patent Literature 5).
In the Sugen/hypoxia model, rats (Sprague-Dawley, male, 6-week-old) were injected subcutaneously with a VEGF-receptor inhibitor SU5416 (Sigma-Aldrich, St Louis, Mo.) (20 mg per kg body weight) under isoflurane anesthesia and were then exposed to hypoxia (10% O2) for 3 weeks. After the indicated period of treatment below, the rats were anesthetized with isoflurane (1.5%) to perform right heart catheterization. All data were analyzed using the PowerLab data acquisition system (AD Instruments, Bella Vista, Australia) and were averaged over 50 sequential beats (Non-patent Literatures 2 to 5).
Hearts were dissected and the right ventricular free wall (RV) was removed from the left ventricle (LV) and septum. The ratio of right ventricular free wall (RV) weight to left ventricle plus septum (LV+Septum) weight [RV/(LV+S)] was measured to assess the extent of RVH (Non-patent Literature 2).
Rats (Sprague-Dawley, male, 6-week-old) were injected subcutaneously with a VEGF-receptor inhibitor SU5416 (Sigma-Aldrich) (20 mg per kg body weight) under isoflurane anesthesia and were then exposed to hypoxia (10% 02) for 3 weeks (hypoxia+SU5416). On day 21, the rats were randomized to be intravenously injected with mebendazole (25 mg per kg body weight) or vehicle (the rats were administered dimethyl sulfoxide in place of mebendazole solution) once daily under normoxia (21% O2) for 2 weeks. The vehicle administration group is expressed as vehicle control. […] Thus, the development of PH was assessed.

[5] = Body weight of rats with Sugen/hypoxia-induced PH; format: in vivo, rats (Sprague-Dawley); conditions: mebendazole 25 mg per kg intravenously once daily for 14 days, vs vehicle control
Procedure: Rats (Sprague-Dawley, male, 6-week-old) were injected subcutaneously with a VEGF-receptor inhibitor SU5416 (Sigma-Aldrich) (20 mg per kg body weight) under isoflurane anesthesia and were then exposed to hypoxia (10% 02) for 3 weeks (hypoxia+SU5416). On day 21, the rats were randomized to be intravenously injected with mebendazole (25 mg per kg body weight) or vehicle (the rats were administered dimethyl sulfoxide in place of mebendazole solution) once daily under normoxia (21% O2) for 2 weeks. The vehicle administration group is expressed as vehicle control. […] On day 35, the rats were anesthetized with isoflurane (1.0%) to measure RVSP and RVH. Thus, the development of PH was assessed.

[6] = hypoxia+SU5416 3 weeks, then mebendazole 25 mg per kg intravenously once daily for 2 weeks under normoxia, day 35, vs vehicle control, FIG. 2

SMILES	right ventricular hypertrophy [1]	right ventricular systolic pressure [1]	average body weight after the test [2]	average body weight before the test ([2]; before the test (baseline), mice n=10 per group)	excessive proliferation of pulmonary artery smooth muscle cells [3]	PH in the animal model in vivo ([4]; Sugen/hypoxia rats, mebendazole 25 mg per kg intravenously once daily for 14 days)	right ventricular hypertrophy (RVH), RV/(LV+S) [4, 6]	right ventricular systolic pressure (RVSP) [4, 6]	body weight [5]
CCC(C)n1ncn(-c2ccc(N3CCN(c4ccc(OC[C@H]5CO[C@](Cn6cncn6)(c6ccc(Cl)cc6Cl)O5)cc4)CC3)cc2)c1=O (stereo partly shown) [itraconazole]	Significant reductions	Significant reductions	17.2 ± 0.2 g	16.8 ± 0.3 g	suppresses excessive proliferation	–	–	–	–
COC(=O)Nc1nc2ccc(C(=O)c3ccccc3)cc2[nH]1 [mebendazole, methyl (5-benzoyl-1H-benzo[d]imidazol-2-yl)carbamate]	Significant reductions	Significant reductions	17.5 ± 0.2 g	–	suppresses excessive proliferation	ameliorated	reduced	reduced	no significant difference; also recorded: no influence
